The values that follow come from patent US6461587B1, “Perfluoroalkylamides, their production and their use in diagnosis” (Schering Aktiengesellschaft, priority 1999, dated 2002).

Series [1] is described as follows: Relaxivity of compounds according to the invention. The format is physicochemical. Particulars: 0.47 T and 37° C. An excerpt:
Relaxivity of Compounds According to the Invention

Series [2] can be described thus: Retention of the opacifying metal at the injection site. It counts as in vivo. To be noted: guinea pig, 10 μmol Gd/kg s.c. The source says:
After s.c. administration of 10 μmol of total gadolinium/kg of body weight in the guinea pig paw, the retention of metal at the injection site was studied at different times.

A short description of series [3]: Organ distribution of the contrast medium after s.c. administration. The format is in vivo. Particulars: guinea pigs, 10 μmol Gd/kg s.c., 7 days after administration. As for the experimental part:
After subcutaneous administration of 10 μmol of total gadolinium/kg of body weight in the hind paw of stimulated guinea pigs (complete Freund adjuvant; 0.1 ml i.m in the right and left lower leg in each case; 2 weeks before the test are administered), the retention of the metal in the […] as in the kidneys and spleen was examined 7 days administration.

Series [4] is described as follows: Compatibility of compounds according to the invention (LD 50). Particulars: in vivo. The source says:
Compatibility of Compounds According to the Invention

Series [5] can be described thus: Lymph node visualization (MRT) after interstitial administration of contrast medium. Particulars: guinea pigs, 10 μmol of Gd/kg s.c., 15 or 30 minutes, T1-weighted gradient echo images. The format is in vivo. As for the experimental part: MR images of popliteal, inguinal and iliac lymph nodes both before (Precontrast) and 15 or 30 minutes after subcutaneous administration (guinea pigs, hind paw, interdigital space) of the substance of Example 5e or of Example 3c (in each case 10 μmol of Gd/kg of body weight) were taken.

A short description of series [6]: Blood level and pharmacokinetics after intravenous administration, in vivo comparison with Dy-DTPA. To be noted: rats, i.v. 100 μmol/kg; for Vd ss / α-t½ / β-t½: n=3; for blood concentrations compared with Dy-DTPA: all examination times 1-120 minutes p.i. The procedure: Three 350 g male (Schering-SPF) rats are used as test animals. 0.33-0.37 ml (in each case 100 mmol/L) of the following contrast medium solution is administered intravenously to each animal: mixture of 1 part each of a perfluoroalkyl-containing compound and the dysprosium-complex of (Dy-DTPA). The administered dose is in each case 100 μmol of Gd or Dy/kg of body weight. Via a catheter in the common carotid artery, blood samples are taken at the following times: 1, 3, 5, 10, 15, 20, 30, 45, 60, 90, 120 minutes p.i. In the blood samples that are obtained, in each case the concentrations of gadolinium (Gd) and dysprosium (Dy) are measured in parallel using atomic emission spectrometry (ICP-AES). The proportion of the injected compounds (Gd-containing perfluoroalkyl-containing compound and Dy-containing comparison substance) that remains in the blood space can be compared in the same animal by the different labeling. The α- and β-half life, the distribution volume and the total clearance can be calculated from the blood concentrations using special software (Topfit program). […]

[7] abbreviates: Table 2: plasma, mixture of 4c and Dy-DTPA.
[8] abbreviates: Table 1: plasma, mixture of 5e and Dy-DTPA.

For “1,4,7-Tris(carboxylatomethyl)-10-{(3-aza-4-oxo-hexan-5-ylic)-acid- [N-4,7,10,17-tetraoxa-14-aza-17-oxo-C20-C28-hepta-decafluoro)-heptacosyl]-amide}-1,4,7,10-tetraazacyclododecane, gadolinium complex [Example 6b]”, in series [1], the “R1 in Plasma” value was 13.3 L/mmol/s and the “R1 in Water” value came to 11.6 L/mmol/s. In addition, the “Gadolinium Content at the Injection Site (Paw)” value (“Gadolinium Content … (Paw)” below) in series [2] (30 min. p.i.) was 66.4% of dose. Besides, in series [2] (90 min. p.i.), the “Gadolinium Content … (Paw)” value is 26.1% of dose. The “Gadolinium Content … (Paw)” value in series [2] (7 days p.i.) was 0.6% of dose. Moreover, in series [3], the “Gadolinium Content in Kidneys” value is listed as 0.1% of dose, the “Gadolinium Content in Liver” value is on record as 1.5% of dose and the “Gadolinium Content in Spleen” value is recorded as 0.0% of dose.

Turning to `COCCN(CCOCCC(F)(F)C(F)(F)C(F)(F)C(F)(F)C(F)(F)C(F)(F)C(F)(F)C(F)(F)F)C(=O)CNC(=O)C(C)N1CCN(CC(=O)[O-])CCN(CC(=O)[O-])CCN(CC(=O)[O-])CC1.[Gd+3]` (stereo not shown) [Example 1c], in series [1], the “R1 in Plasma” value was 25.7 L/mmol/s and the “R1 in Water” value stood at 13.8 L/mmol/s.

In the case of `CC(C(=O)NCC(=O)N(CCOCCC(F)(F)C(F)(F)C(F)(F)C(F)(F)C(F)(F)C(F)(F)C(F)(F)C(F)(F)F)CC(O)CO)N1CCN(CC(=O)[O-])CCN(CC(=O)[O-])CCN(CC(=O)[O-])CC1.[Gd+3]` (stereo not shown) [Example 2c], in series [1], the “R1 in Plasma” value worked out at 19.6 L/mmol/s and the “R1 in Water” value worked out at 11.8 L/mmol/s. In series [4], the “LD 50” value is 3 mmol of Gd/kg of body weight.

As for `CC(C(=O)NCC(=O)N(CCOCCO)CCOCCC(F)(F)C(F)(F)C(F)(F)C(F)(F)C(F)(F)C(F)(F)C(F)(F)C(F)(F)F)N1CCN(CC(=O)[O-])CCN(CC(=O)[O-])CCN(CC(=O)[O-])CC1.[Gd+3]` (stereo not shown) [Example 3c], in series [1], the “R1 in Plasma” value is 21.0 L/mmol/s and the “R1 in Water” value came to 14.0 L/mmol/s. Moreover, the “Gadolinium Content … (Paw)” value in series [2] (30 min. p.i.) is given as 6.5% of dose. For the same molecule, in series [2] (90 min. p.i.), the “Gadolinium Content … (Paw)” value is on record as 4.9% of dose. The “Gadolinium Content … (Paw)” value in series [2] (7 days p.i.) is 1.7% of dose. Moreover, the “LD 50” value in series [4] is 8 mmol of Gd/kg of body weight. Also, the “MR signal in popliteal, inguinal and iliac lymph nodes of the injected body side vs non-injected side or precontrast” value in series [5] is listed as “strong signal increase”. For the same molecule, in series [3], the “Gadolinium Content in Kidneys” value is 0.1% of dose, the “Gadolinium Content in Liver” value was 1.3% of dose and the “Gadolinium Content in Spleen” value is given as 0.0% of dose.

For `CC(C(=O)NCC(=O)N(CCO)CCOCCC(F)(F)C(F)(F)C(F)(F)C(F)(F)C(F)(F)C(F)(F)C(F)(F)C(F)(F)F)N1CCN(CC(=O)[O-])CCN(CC(=O)[O-])CCN(CC(=O)[O-])CC1.[Gd+3]` (stereo not shown) [Example 4c], in series [1], the “R1 in Plasma” value worked out at 21.9 L/mmol/s and the “R1 in Water” value amounted to 14.4 L/mmol/s. For the same molecule, the “LD 50” value in series [4] is reported as 0.3 mmol of Gd/kg of body weight. For the same molecule, in series [6] (setting [7]), the Vd ss is reported as 0.12 ± 0.00 L/kg, the α-t½ is on record as 1.01 ± 0.32 min and the β-t½ is given as 79.68 ± 12.26 min. Moreover, in series [6], the “distribution volume compared to Dy-DTPA” value was “significantly smaller distribution volume” and the “blood concentrations compared with Dy-DTPA” value was “significantly higher blood concentrations”.

For the molecule `COCCOCCOCCOCCOCCN(CCOCCC(F)(F)C(F)(F)C(F)(F)C(F)(F)C(F)(F)C(F)(F)C(F)(F)C(F)(F)F)C(=O)CNC(=O)C(C)N1CCN(CC(=O)[O-])CCN(CC(=O)[O-])CCN(CC(=O)[O-])CC1.[Gd+3]` (stereo not shown) [Example 5e], in series [1], the “R1 in Plasma” value was 30.3 L/mmol/s and the “R1 in Water” value amounted to 12.4 L/mmol/s. Further, the “Gadolinium Content … (Paw)” value in series [2] (30 min. p.i.) is listed as 8.5% of dose. For the same molecule, the “Gadolinium Content … (Paw)” value in series [2] (90 min. p.i.) was 9.4% of dose. For the same molecule, in series [4], the “LD 50” value was 15 mmol of Gd/kg of body weight. In addition, in series [5], the “MR signal in popliteal, inguinal and iliac lymph nodes of the injected body side vs non-injected side or precontrast” value is “strong signal increase”. In series [6] (setting [8]), the Vd ss is given as 0.16 ± 0.03 L/kg, the α-t½ was 3.77 ± 0.75 min and the β-t½ was 102.29 ± 24.48 min. Also, in series [6], the “distribution volume compared to Dy-DTPA” value is “significantly smaller distribution volume” and the “blood concentrations compared with Dy-DTPA” value was “significantly higher blood concentrations”.

In the case of `CC(C(=O)NCC(=O)NCCOCCC(F)(F)C(F)(F)C(F)(F)C(F)(F)C(F)(F)C(F)(F)C(F)(F)C(F)(F)F)N1CCN(CC(=O)[O-])CCN(CC(=O)[O-])CCN(CC(=O)[O-])CC1.[Gd+3]` (stereo not shown) [Example 7, 1,4,7-Tris(carboxylatomethyl)-10-[-(3-aza-4-oxo-hexan-5-ylic)-acid-N-(1H,1H,2H,2H,4H,4H,5H,5H-3-oxa-perfluorotridecyl)-amide]-1,4,7, 10-tetraaza-cyclododecane, gadolinium complex], in series [1], the “R1 in Plasma” value came to 21.0 L/mmol/s and the “R1 in Water” value turned out to be 18.1 L/mmol/s. In addition, the “Gadolinium Content … (Paw)” value in series [2] (30 min. p.i.) is 54.2% of dose. In addition, the “Gadolinium Content … (Paw)” value in series [2] (90 min. p.i.) is given as 36.8% of dose. The “Gadolinium Content … (Paw)” value in series [2] (7 days p.i.) was 1.3% of dose. Further, in series [3], the “Gadolinium Content in Kidneys” value was 0.2% of dose, the “Gadolinium Content in Liver” value is given as 6.2% of dose and the “Gadolinium Content in Spleen” value was 0.0% of dose.

Regarding `CC(C(=O)NCC(=O)NCCNS(=O)(=O)C(F)(F)C(F)(F)C(F)(F)C(F)(F)C(F)(F)C(F)(F)C(F)(F)C(F)(F)F)N1CCN(CC(=O)[O-])CCN(CC(=O)[O-])CCN(CC(=O)[O-])CC1.[Gd+3]` (stereo not shown) [Example 10c, 1,4,7-Tris(carboxylatomethyl)-10-{(3-aza-4-oxo-hexan-5-ylic)-acid-N-[(2-perfluorooctylsulfonylamino)-ethyl]-amide}-1,4,7,10-tetraazacyclododecane, gadolinium complex], in series [1], the “R1 in Plasma” value was determined as 27.8 L/mmol/s and the “R1 in Water” value was determined as 21.6 L/mmol/s.

Consider Dy-DTPA [reference compound], for which, in series [6] (setting [8]), the Vd ss is recorded as 0.29 ± 0.09 L/kg, the α-t½ worked out at 2.19 ± 0.59 min and the β-t½ was determined as 62.59 ± 37.47 min. In series [6] (setting [7]), the Vd ss amounted to 0.15 ± 0.03 L/kg, the α-t½ is on record as 0.89 ± 0.32 min and the β-t½ is listed as 21.37 ± 2.18 min.
